Measured values published in patent US11806342B2, “Diiodohydroxyquinoline for the treatment of clostridium difficile infection” (Purdue Research Foundation, priority 2019, dated 2023).

Key:
[1] = test system: C. difficile NR-49277; assay: Time kill kinetics assay; format: cell-based, Clostridium difficile; conditions: C. difficile NR-49277, 5×MIC, 37° C.
Method: (§1) Time kill kinetics assay. In order to examine the killing kinetics of DIHQ, a time kill kinetics assay was performed against Clostridium difficile ATCC BAA 1870 and C. difficile NR-49277 as described previously. […] Aliquots were collected from each treatment after 0, 4, 6, 8, 12, and 24 hours of incubation at 37° C. and subsequently serially diluted and plated for viable CFU/mL determination.

[2] = test system: C. difficile ATCC BAA-1870; assay: Time kill kinetics assay; format: cell-based, Clostridium difficile; conditions: C. difficile ATCC BAA-1870, 5×MIC, 37° C.
Method: as §1

[3] = test system: Bacteroides fragilis HM-711; assay: MIC against normal gut microflora, broth microdilution; format: cell-based; conditions: HM711; Bacteroides fragilis HM-711; read-out: MIC
Method: (§2) In vitro antimicrobial evaluation of diiodohydroxyquinoline against normal microflora. The broth microdilution assay was utilized to determine the MICs of DIHQ and control antibiotics against commensal organisms that compose he human gut microflora, as described elsewhere. A bacterial solution equivalent to 0.5 McFarland standard was prepared and diluted in BHIS broth (for Bifidobacterium and Bacteroides) or in MRS broth (for Lactobacillus) to achieve a bacterial concentration of about 5×10^5 CFU/mL. Then, drugs were added and serially diluted along the plates.

[4] = test system: Bifidobacterium angulatum HM-1189; assay: as above; format: cell-based; conditions: HM1189; Bifidobacterium angulatum HM-1189; read-out: MIC
Method: as §2

[5] = test system: Bifidobacterium breve HM-1120; assay: as above; format: cell-based; conditions: HM1120; Bifidobacterium breve HM-1120; read-out: MIC
Method: as §2

[6] = test system: Bacteroides dorei HM-719; assay: as above; format: cell-based; conditions: Phocaeicola dorei, HM719; Bacteroides dorei HM-719; read-out: MIC
Method: as §2

[7] = test system: Lactobacillus casei ATCC 334; assay: as above; format: cell-based; conditions: Lacticaseibacillus casei, ATCC334; Lactobacillus casei ATCC 334; read-out: MIC
Method: as §2

[8] = test system: C. difficile NR-49286; assay: MIC and MBC, broth microdilution; format: cell-based, Clostridium difficile; conditions: Clostridioides difficile, NR49286, C. difficile NR-49286
Method: (§3) MIC50 and MIC90 are the minimum concentration of each agent that inhibited growth of 50% and 90% of the tested isolates, respectively. The minimum bactericidal concentration (MBC) of these drugs was tested by plating 5 μL from wells with no growth onto BHIS agar plates. The MBC was categorized as the lowest concentration that reduced bacterial growth by 99.9% MIC50 and MIC90 are the minimum concentration of each agent that inhibited the growth of 50% and 90% of the tested isolates, respectively. The minimum bactericidal concentration (MBC) of these drugs was tested by plating 5 μL from wells with no growth onto BHIS agar plates. The MBC was categorized as the lowest concentration that reduced bacterial growth by 99.9% [29-31].

[9] = test system: C. difficile P7; assay: MIC and MBC, broth microdilution; format: cell-based, Clostridium difficile; conditions: Clostridioides difficile, C. difficile P7
Method: as §3

[10] = test system: C. difficile P1; assay: MIC and MBC, broth microdilution; format: cell-based, Clostridium difficile; conditions: Clostridioides difficile, C. difficile P1
Method: as §3

[11] = test system: C. difficile P13; assay: MIC and MBC, broth microdilution; format: cell-based, Clostridium difficile; conditions: Clostridioides difficile, C. difficile P13
Method: as §3

[12] = test system: C. difficile ATCC 43598; assay: MIC and MBC, broth microdilution; format: cell-based, Clostridium difficile; conditions: Clostridioides difficile, ATCC43598, C. difficile ATCC 43598
Method: as §3

[13] = test system: C. difficile ATCC 700057; assay: MIC and MBC, broth microdilution; format: cell-based, Clostridium difficile; conditions: Clostridioides difficile, ATCC700057, C. difficile ATCC 700057
Method: as §3

[14] = test system: C. difficile P11; assay: MIC and MBC, broth microdilution; format: cell-based, Clostridium difficile; conditions: Clostridioides difficile, C. difficile P11
Method: as §3

[15] = test system: C. difficile NR-49277; assay: MIC and MBC, broth microdilution; format: cell-based, Clostridium difficile; conditions: Clostridioides difficile, NR49277, C. difficile NR-49277
Method: as §3

[16] = test system: C. difficile P2; assay: MIC and MBC, broth microdilution; format: cell-based, Clostridium difficile; conditions: Clostridioides difficile, C. difficile P2
Method: as §3

[17] = test system: C. difficile NR-49290; assay: MIC and MBC, broth microdilution; format: cell-based, Clostridium difficile; conditions: Clostridioides difficile, NR49290, C. difficile NR-49290
Method: as §3

[18] = test system: C. difficile I4; assay: MIC and MBC, broth microdilution; format: cell-based, Clostridium difficile; conditions: Clostridioides difficile, C. difficile I4
Method: as §3

[19] = test system: C. difficile P24; assay: MIC and MBC, broth microdilution; format: cell-based, Clostridium difficile; conditions: Clostridioides difficile, C. difficile P24
Method: as §3

[20] = test system: C. difficile ATCC BAA-1870; assay: MIC and MBC, broth microdilution; format: cell-based, Clostridium difficile; conditions: Clostridioides difficile, ATCCBAA1870, C. difficile ATCC BAA-1870
Method: as §3

[21] = test system: C. difficile I1; assay: MIC and MBC, broth microdilution; format: cell-based, Clostridium difficile; conditions: Clostridioides difficile, C. difficile I1
Method: as §3

[22] = test system: C. difficile I2; assay: MIC and MBC, broth microdilution; format: cell-based, Clostridium difficile; conditions: Clostridioides difficile, C. difficile I2
Method: as §3

[23] = test system: C. difficile ATCC 9689; assay: MIC and MBC, broth microdilution; format: cell-based, Clostridium difficile; conditions: Clostridioides difficile, ATCC9689, C. difficile ATCC 9689
Method: as §3

[24] = test system: C. difficile NR-49284; assay: MIC and MBC, broth microdilution; format: cell-based, Clostridium difficile; conditions: Clostridioides difficile, NR49284, C. difficile NR-49284
Method: as §3

[25] = test system: C. difficile NR-49281; assay: MIC and MBC, broth microdilution; format: cell-based, Clostridium difficile; conditions: Clostridioides difficile, NR49281, C. difficile NR-49281
Method: as §3

[26] = test system: C. difficile HM-89; assay: MIC and MBC, broth microdilution; format: cell-based, Clostridium difficile; conditions: Clostridioides difficile, HM89, C. difficile HM-89
Method: as §3

[27] = test system: C. difficile P8; assay: MIC and MBC, broth microdilution; format: cell-based, Clostridium difficile; conditions: Clostridioides difficile, C. difficile P8
Method: as §3

Oc1c(I)cc(I)c2cccnc12 [DIHQ, 5,7-diiodoquinolin-8-ol]
0.5 µg/mL: MBC ([8]; read-out: MBC) | MBC ([9]; read-out: MBC) | MIC ([9]; read-out: MIC) | MBC ([10]; read-out: MBC) | MIC ([10]; read-out: MIC) | MBC ([11]; read-out: MBC) | MIC ([11]; read-out: MIC) | MBC ([13]; read-out: MBC) | MIC ([13]; read-out: MIC) | MBC ([15]; read-out: MBC) | MIC ([15]; read-out: MIC) | MBC ([17]; read-out: MBC)
2 µg/mL: MBC ([19]; read-out: MBC) | MBC ([22]; read-out: MBC) | MIC ([22]; read-out: MIC)
≤ 6 h: time to complete eradication of the bacteria (below the detection limit, 100 CFU/mL) [1]
128 µg/mL: MIC [4]
4 hours: time required to generate a 3-log10 reduction in CFU/mL [1]
0.25 µg/mL: MIC ([8]; read-out: MIC) | MBC ([14]; read-out: MBC) | MIC ([14]; read-out: MIC) | MBC ([16]; read-out: MBC) | MIC ([16]; read-out: MIC) | MIC ([17]; read-out: MIC) | MBC ([23]; read-out: MBC) | MBC ([25]; read-out: MBC) | MIC ([25]; read-out: MIC)
1 µg/mL: MBC ([12]; read-out: MBC) | MIC ([12]; read-out: MIC) | MBC ([18]; read-out: MBC) | MIC ([18]; read-out: MIC) | MIC ([19]; read-out: MIC) | MBC ([20]; read-out: MBC) | MIC ([20]; read-out: MIC) | MBC ([21]; read-out: MBC) | MIC ([21]; read-out: MIC) | MBC ([26]; read-out: MBC) | MIC ([26]; read-out: MIC)
≤ 24 h: time to complete eradication of the bacteria (below the detection limit, 100 CFU/mL) [2]
16 µg/mL: MIC [7]
six: time required to generate a 3-log10 reduction in CFU/mL [2]
> 128 µg/mL: MIC [3] | MIC [5] | MIC [6]
0.125 µg/mL: MIC ([23]; read-out: MIC) | MBC ([24]; read-out: MBC) | MIC ([24]; read-out: MIC) | MBC ([27]; read-out: MBC) | MIC ([27]; read-out: MIC)
